In patent US20220226219A1, “ANTIMICROBIAL COMPOSITIONS” (Conopco, Inc., d/b/a UNILEVER, priority 2019, published 2022):

System: Gram negative fermenting bacteria; Enterobacter gergoviae and Klebsiella species
Test: Liquid broth MIC assay of individual chemicals
Assay type: cell-based
Conditions: tryptic soy broth, 30° C., 24 hours, OD600, MIC = concentration at which <25% growth vs positive growth control
Description: Liquid broth assays (MIC and checkerboard) were conducted to identify the minimum concentration(s) of individual and tertiary antimicrobial chemicals. A modified methodology to ISO 20776-1:2006 was utilized for the screening as follows. Stock solutions of antimicrobial chemicals and tryptic soy broth were inoculated with 1-5×10^6 microorganism mixture of Gram negative fermenting bacteria; Enterobacter gergoviae and Klebsiella species.
Samples were incubated at 30° C. for 24 hours, after which optical densities at OD600 nm were measured.

`C=C(C)[C@H]1CC=C(C)CC1` [Limonene] was tested. Which MIC did it give?
The MIC was 2 wt %.

`CC1=CC[C@@H](C(C)(C)O)CC1` [Terponeol] was tested. Which MIC did it give?
The MIC was 0.125 wt %.

For `C=CCc1ccc(O)c(OC)c1` [Eugenol], which MIC is on record?
Its MIC is 0.063 wt %.

`CC(C)=CCC/C(C)=C/CO` [Geraniol Natural, Geraniol] was tested. Which MIC did it give?
Its MIC is 2 wt %.

`CC1CCC(C(C)C)C(O)C1` (stereo not shown) [Menthol] was tested. Which MIC did it give?
The MIC was 2 wt %.

How did the MIC turn out when `CCCCCCCC1CCC(=O)O1` (stereo not shown) [Gamma Undecalactone] was run?
Its MIC is 2 wt %.

Which MIC does the source give for `C=C(CC(=O)O)C(=O)O` [ltaconic Acid] here?
The MIC was 0.5 wt %.

`CC12CCC(CC1)C(C)(C)O2` [Eucalyptol] was tested. Which MIC did it give?
Its MIC is 2 wt %.

For `OCCc1ccccc1` [Phenethyl Alcohol], which MIC is on record?
The MIC was 0.5 wt %.

For `O=C([O-])c1ccccc1.[Na+]` [Sodium benzoate], which MIC is on record?
The MIC was 0.5 wt %.

For `CC(C)=CCCC(C)CCO` (stereo not shown) [Citroneol], which MIC is on record?
The MIC was 2 wt %.

`CC(=O)OCc1ccccc1` [Benzyl Acetate] was tested. Which MIC did it give?
Its MIC is 2 wt %.

For `CCCC(=O)OCC` [Ethyl Butyrate], which MIC is on record?
Its MIC is 2 wt %.

`Cc1cc(CC(C)CC(C)(C)C)n(O)c(=O)c1.NCCO` (stereo not shown) [Octopirox, piroctone olamine, reference compound] was tested. Which MIC did it give?
Its MIC is 0.063 wt %.

For `CC(=O)OC/C=C(\C)CCC=C(C)C` [Geranyl Acetate], which MIC is on record?
Its MIC is 2 wt %.

For `CCCCCCOC(C)=O` [Hexyl acetate], which MIC is on record?
Its MIC is 2 wt %.
